Read-outs that look alike come from different tables or passages of the source.

The test system of test [1] is Metastatic NSCLC patients. As to conditions: for Response to gefitinib therapy: metastatic NSCLC.
Test [2] deals with chemo-refractory advanced stage NSCLC. Conditions: phase II clinical trials; cited from earlier work.
[3] abbreviates: EIF3H FISH negative patients (mean <2.75).
The mark [4] stands for this setting: EIF3H FISH positive patients (mean ≧2.75).
[5] abbreviates: MYC FISH negative patients (mean <2.79).
[6] abbreviates: MYC FISH positive patients (mean ≧2.79).

As for `COc1cc2ncnc(Nc3ccc(F)c(Cl)c3)c2cc1OCCCN1CCOCC1` [gefitinib], the “response rate (RR)” value is given as 0% in test [1] (setting [3]), 32% in test [1] (setting [4]), 0% in test [1] (setting [5]) and 31% in test [1] (setting [6]). In addition, the “time to progression (TTP)” value in test [1] (setting [3]) was found to be 2.7 months; in test [1] (setting [4]) it was 4.4 months; in test [1] (setting [5]), 2.6 months; in test [1] (setting [6]), 4.4 months. Further, in test [1] (setting [4]), the “survival (OS)” value is on record as 17.8 months. Moreover, the “Response to gefitinib therapy” value in test [1] (EIF3H amplified patients (ratio EIF3H/CEP8>2)) is 30%; in test [1] (EIF3H non amplified patients), 14%; in test [1] (MYC amplified patients), 25%; in test [1] (MYC non-amplified patients) it was 14%. Besides, the “patients responding to treatment” value in test [2] is on record as 11-20%.

Values taken from patent US20110294686A1, “EGFR INHIBITOR THERAPY RESPONSIVENESS” (priority 2008, published 2011).
